Data set [1] has as its system mycobacteria of the avium complex, patient Ka-B. Briefly: MIC alone and in combination. Type of data set: cell-based. The note with it: Homo sapiens, single.
In data set [2] the test system is mycobacteria of the avium complex, patient Wi. Briefly: MIC alone and in combination. Type of data set: cell-based. The note with it: Homo sapiens, single.
The subject of data set [3] is mycobacteria of the avium complex, patient one. Briefly: MIC alone and in combination. Type of data set: cell-based. The note with it: Homo sapiens, single.
The subject of data set [4] is mycobacteria of the avium complex, patient Me. Briefly: MIC alone and in combination. Type of data set: cell-based. Conditions: Homo sapiens, single.
In data set [5] the test system is mycobacteria of the avium complex, patient Bi. Kind of data set: MIC alone and in combination. Format: cell-based. Conditions: Homo sapiens, single.
The test system of data set [6] is mycobacteria of the avium complex, patient Ma. Kind of data set: MIC alone and in combination. Type of data set: cell-based. The note with it: Homo sapiens, single.
For data set [7], the system named is mycobacteria of the avium complex, patient Sa. Kind of data set: MIC alone and in combination. Conditions: Homo sapiens, single. Format: cell-based.
The subject of data set [8] is mycobacteria of the avium complex, patient Vo. Kind of data set: MIC alone and in combination. Format: cell-based. The note with it: Homo sapiens, single.
Data set [9] has as its system mycobacteria of the avium complex, patient two. Briefly: MIC alone and in combination. Format: cell-based. The note with it: Homo sapiens, single.
Data set [10] has as its system mycobacteria of the avium complex, patient Ku. Kind of data set: MIC alone and in combination. Format: cell-based. The note with it: Homo sapiens, single.
For a further data set, the system named is M. avium Ro. Briefly: MIC of the individual substances. The note with it: for MIC: single substance.
The test system of data set [11] is RMP-resistant patient strain M. avium BK. Kind of data set: chess-board titration, growth inhibition. Type of data set: cell-based.
The test system of another data set is M. avium Dan. Kind of data set: MIC of the individual substances. Conditions: for MIC: single substance.
Data set [12] deals with mycobacteria of the MOTT-complex. Kind of data set: effect when administered alone. Conditions: administered alone (cf. Example 2, Table 2 and Table 5).
For the next data set, the system named is M.tuberculosis H37Rv. Kind of data set: chess-board titration, growth inhibition. Type of data set: cell-based.
Another data set deals with M. avium 227. Briefly: MIC of the individual substances.
Another data set has as its system M. avium Bi. Briefly: MIC of the individual substances. The note with it: single substance.
For data set [13] the following is noted: higher doses; cited from earlier work.
A further data set has as its system mycobacteria. Conditions: administered alone in acceptable doses; cited from earlier work.
[14] abbreviates: Mycobacterium avium, 227, read-out: average inhibiting concentration alone.

The values that follow come from patent publication US5104875A, “Combination preparations containing rifampicin and thioacetazon” (priority 1989, dated 1992).

Like-named read-outs stand apart in the source and are kept apart here.

Description for M. avium 227: (§1) The bacteria were cultivated in a liquid nutrient medium according to Lockemann (cf. "Nachweisverfahren fur Mykobakterien aus Untersuchungsmaterial, III, Nahrbodenrezepte zur Kultur von Tuberkulosebakterien, 1978, Publisher: Deutsches Zentralkomitee zur Bekampfung der Tuberkulose, Poppenhusenstrasse 14c, 2000 Hamburg 60) enriched with 0.5 % albumin and 1 % human serum. In each case 5×10^-3 to 5 ×10^-5 mg, referred to the weight in wet state, of the mycobacteria strains were incubated in 2 ml of the culture liquid at 37° C. with graded concentrations of RMP and Thz. Readings were taken from the culture tubes after 8 to 15 days.
(§2) The MIC is the concentration of the growth inhibitor in μg/ml, at which no multiplication of the seeded cells can be established.
Description for M. avium Bi: as §1, §2
Description for M. avium Dan: as §1, §2
Description for M. avium Ro: as §1, §2

Regarding `CC[C@@H](CO)NCCN[C@@H](CC)CO` [EMB, ethambutol], the MIC in [1] is > 32 µg/mL; in data set [2] it was > 32 µg/mL; in data set [3], > 32 µg/mL; in data set [4] it was 8 µg/mL; in data set [5] it was 4 µg/mL; in data set [6], 32 µg/mL. The MIC in data set [7] is > 32 µg/mL; in [8], 4 to 8 µg/mL; in data set [9] it was 16 to 32 µg/mL; in data set [10], > 32 µg/mL.
As to `NNC(=O)c1ccncc1` [INH, isonicotinic acid hydrazide], the MIC was 32 µg/mL in data set [1]; 16 µg/mL in data set [2]; 4 µg/mL in data set [3]; 16 µg/mL in data set [4]; > 32 µg/mL in [5]; > 32 µg/mL in data set [6]. Further, the MIC was 32 µg/mL in data set [7], 8 µg/mL in data set [8], 16 µg/mL in data set [9] and 4 µg/mL in data set [10].
For `CO[C@H]1/C=C/O[C@@]2(C)Oc3c(C)c(O)c4c(O)c(c(/C=N/N5CCN(C)CC5)c(O)c4c3C2=O)NC(=O)/C(C)=C\C=C\[C@H](C)[C@H](O)[C@@H](C)[C@@H](O)[C@@H](C)[C@H](OC(C)=O)[C@@H]1C` [RMP, rifampicin], the MIC is > 32 µg/mL in [1]; > 32 µg/mL in [2]; > 32 µg/mL in [3]; 16 µg/mL in [4]; 4 µg/mL in data set [5]; > 32 µg/mL in data set [6]. Moreover, the MIC in the data set with M. avium Ro is > 32 µg/mL; in data set [7] it was 8 µg/mL; in the data set on M. avium Dan, 16 µg/mL; in data set [8], 16 µg/mL; in [9], 32 µg/mL; in [10], 32 µg/mL. Moreover, the MIC in the data set on M. avium 227 (M. avium 227, single substance) was 8 µg/mL; with M. avium 227 (setting [14]) it was 8 µg/mL; with M. avium Bi, 3 µg/mL. Besides, in the data set on M. avium Ro, the resistance entry is reported as “completely resistant”. The growth inhibition entry in [11] (Rifampicin 0.8 ug/ml, Thioacetazon 0.000) is listed as “+++”; in [11] (Rifampicin 1.6 ug/ml, Thioacetazon 0.000) it was “+++”; in [11] (Rifampicin 2.4 ug/ml, Thioacetazon 0.000), “++”; in data set [11] (Rifampicin 3.2 ug/ml, Thioacetazon 0.000) it was “++”; in [11] (Rifampicin 4 ug/ml, Thioacetazon 0.000) it was “-”; in [11] (Rifampicin 4.8 ug/ml, Thioacetazon 0.000), “-”. Also, the growth inhibition result is “-” in [11] (Rifampicin 5.4 ug/ml, Thioacetazon 0.000); “-” in data set [11] (Rifampicin 6.4 ug/ml, Thioacetazon 0.000); “-” in [11] (Rifampicin 7.2 ug/ml, Thioacetazon 0.000); “-” in data set [11] (Rifampicin 8 ug/ml, Thioacetazon 0.000); “+++” in the data set on M.tuberculosis H37Rv (Rifampicin .006 ug/ml, Thioacetazon 0); “+++” in the data set on M.tuberculosis H37Rv (Rifampicin .012 ug/ml, Thioacetazon 0). The growth inhibition entry is on record as “+++” with M.tuberculosis H37Rv (Rifampicin .018 ug/ml, Thioacetazon 0); “+++” in the data set with M.tuberculosis H37Rv (Rifampicin .024 ug/ml, Thioacetazon 0); “++” in the data set on M.tuberculosis H37Rv (Rifampicin .030 ug/ml, Thioacetazon 0); “+” with M.tuberculosis H37Rv (Rifampicin .036 ug/ml, Thioacetazon 0); “+” in the data set on M.tuberculosis H37Rv (Rifampicin .042 ug/ml, Thioacetazon 0); “+” in the data set on M.tuberculosis H37Rv (Rifampicin .048 ug/ml, Thioacetazon 0). The growth inhibition result with M.tuberculosis H37Rv (Rifampicin .054 ug/ml, Thioacetazon 0) was “-”; in the data set with M.tuberculosis H37Rv (Rifampicin .06 ug/ml, Thioacetazon 0), “-”. Besides, the “effect against the mycobacteria of the MOTT-complex” value in data set [12] was “no effect or only a slight effect”.
As for `CC(=O)Nc1ccc(C=NNC(N)=S)cc1` [Thz, thioacetazon], the MIC was > 32 µg/mL in data set [1]; 32 µg/mL in data set [2]; 16 µg/mL in data set [3]; 32 µg/mL in data set [4]; > 32 µg/mL in data set [5]; > 32 µg/mL in [6]. For the same compound, the MIC is > 32 µg/mL in the data set with M. avium Ro; 32 µg/mL in [7]; > 32 µg/mL with M. avium Dan; 32 µg/mL in data set [8]; 32 µg/mL in data set [9]; 32 µg/mL in data set [10]. Further, the MIC in the data set with M. avium 227 (M. avium 227, single substance) was 32 µg/mL; in the data set on M. avium 227 (setting [14]) it was 32 µg/mL; with M. avium Bi, 3 µg/mL. In addition, the undesirable side-effects result in data set [13] was “can lead to undesirable side-effects in higher doses”. The anti-mycobacterial effect result with mycobacteria is listed as “only of weak effect”. In addition, the resistance entry in the data set on M. avium Ro is “completely resistant”; with M. avium Dan, “resistant”. The growth inhibition entry is on record as “+++” in data set [11] (Thioacetazon 0.8 ug/ml, Rifampicin 0); “+++” in data set [11] (Thioacetazon 1.6 ug/ml, Rifampicin 0); “++” in data set [11] (Thioacetazon 2.4 ug/ml, Rifampicin 0); “++” in [11] (Thioacetazon 3.2 ug/ml, Rifampicin 0); “++” in data set [11] (Thioacetazon 4 ug/ml, Rifampicin 0); “++” in data set [11] (Thioacetazon 4.8 ug/ml, Rifampicin 0). The growth inhibition result in [11] (Thioacetazon 5.6 ug/ml, Rifampicin 0) was “+”; in data set [11] (Thioacetazon 6.4 ug/ml, Rifampicin 0), “+”; in [11] (Thioacetazon 7.2 ug/ml, Rifampicin 0), “+”; in [11] (Thioacetazon 8 ug/ml, Rifampicin 0), “+”; in the data set with M.tuberculosis H37Rv (Thioacetazon .05 ug/ml, Rifampicin 0), “+++”; with M.tuberculosis H37Rv (Thioacetazon .10 ug/ml, Rifampicin 0), “+++”. The growth inhibition entry with M.tuberculosis H37Rv (Thioacetazon .15 ug/ml, Rifampicin 0) is on record as “+++”; with M.tuberculosis H37Rv (Thioacetazon .20 ug/ml, Rifampicin 0), “+++”; in the data set with M.tuberculosis H37Rv (Thioacetazon .25 ug/ml, Rifampicin 0) it was “+++”; in the data set on M.tuberculosis H37Rv (Thioacetazon .30 ug/ml, Rifampicin 0), “+++”; in the data set with M.tuberculosis H37Rv (Thioacetazon .35 ug/ml, Rifampicin 0), “+++”; with M.tuberculosis H37Rv (Thioacetazon .40 ug/ml, Rifampicin 0), “+ ++”. For the same compound, the growth inhibition result with M.tuberculosis H37Rv (Thioacetazon .45 ug/ml, Rifampicin 0) was “+++”; in the data set with M.tuberculosis H37Rv (Thioacetazon .50 ug/ml, Rifampicin 0), “+++”.
